In ChEMBL document CHEMBL1201861, “Genomics of Drug Sensitity in Cancer screening data, Wellcome Trust Sanger Institute”:
pIC50: −log10 of the molar value.

How the values were obtained:
Assay in all cases: cells
NMC-G1 = type: functional, cell-based, Homo sapiens; details: Homo sapiens, NMC-G1;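 note: growth inhibition of the NMC-G1 cell line, measured with a cell viability read-out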
Description: SANGER: Inhibition of human NMC-G1 cell growth in a cell viability assay.

HT-3 = type: functional, cell-based, Homo sapiens; details: Homo sapiens, HT-3;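 note: growth inhibition measured with a cell viability readout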
Description: SANGER: Inhibition of human HT-3 cell growth in a cell viability assay.

KM-H2 = type: functional, cell-based; details: Homo sapiens;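 note: growth inhibition of KM-H2 cells, read out by a cell viability assay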
Description: SANGER: Inhibition of human KM-H2 cell growth in a cell viability assay.

SK-N-DZ = type: functional, cell-based, Homo sapiens; details: Homo sapiens, SK-N-DZ;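 note: growth inhibition of the cancer cell line, read out through a viability assay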
Description: SANGER: Inhibition of human SK-N-DZ cell growth in a cell viability assay.

NCI-H446 = type: functional, cell-based; details: Homo sapiens;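 note: growth inhibition of NCI-H446 cells determined by a cell viability assay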
Description: SANGER: Inhibition of human NCI-H446 cell growth in a cell viability assay.

TE-1 = type: functional, cell-based, Homo sapiens; details: Homo sapiens, TE-1;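 note: growth inhibition of the human TE-1 cell line, read out with a cell viability assay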
Description: SANGER: Inhibition of human TE-1 cell growth in a cell viability assay.

MDA-MB-453 = type: functional, cell-based, Homo sapiens; details: Homo sapiens, MDA-MB-453
Description: SANGER: Inhibition of human MDA-MB-453 cell growth in a cell viability assay.

ME-180 = type: functional, cell-based; details: Homo sapiens;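 note: cell viability assay measuring growth inhibition of ME-180 cells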
Description: SANGER: Inhibition of human ME-180 cell growth in a cell viability assay.

EFM-19 = type: functional, cell-based, Homo sapiens; details: Homo sapiens, EFM-19;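 note: growth inhibition of human EFM-19 cells, measured in a cell viability assay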
Description: SANGER: Inhibition of human EFM-19 cell growth in a cell viability assay.

ES7 = type: functional, cell-based, Homo sapiens; details: Homo sapiens, ES7;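 note: growth inhibition of cultured human ES7 cells, read out as cell viability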
Description: SANGER: Inhibition of human ES7 cell growth in a cell viability assay.

SW948 = type: functional, cell-based, Homo sapiens; details: Homo sapiens, SW948;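 note: growth inhibition of SW948 cells, read out with a cell viability assay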
Description: SANGER: Inhibition of human SW948 cell growth in a cell viability assay.

GAMG = type: functional, cell-based, Homo sapiens; details: Homo sapiens, GAMG;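 note: cell growth inhibition measured by a viability assay in the GAMG human cell line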
Description: SANGER: Inhibition of human GAMG cell growth in a cell viability assay.

HSC-2 = type: functional, cell-based, Homo sapiens; details: Homo sapiens, HSC-2;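 note: growth inhibition of human HSC-2 cells, read out by a cell viability assay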
Description: SANGER: Inhibition of human HSC-2 cell growth in a cell viability assay.

A388 = type: functional, cell-based, Homo sapiens; details: Homo sapiens, A388;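 note: growth inhibition of human A388 cells, read out with a cell viability assay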
Description: SANGER: Inhibition of human A388 cell growth in a cell viability assay.

MIA PaCa-2 = type: functional, cell-based, Homo sapiens; details: Homo sapiens, MIA PaCa-2;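 note: growth inhibition of MIA PaCa-2 cells, read out with a cell viability assay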
Description: SANGER: Inhibition of human MIA-PaCa-2 cell growth in a cell viability assay.

NCI-H1650 = type: functional, cell-based, Homo sapiens; details: Homo sapiens, NCI-H1650;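 note: growth inhibition of human NCI-H1650 cells measured by a cell viability assay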
Description: SANGER: Inhibition of human NCI-H1650 cell growth in a cell viability assay.

SK-UT-1 = type: functional, cell-based, Homo sapiens; details: Homo sapiens, SK-UT-1;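 note: growth inhibition of SK-UT-1 cells, measured by a cell viability assay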
Description: SANGER: Inhibition of human SK-UT-1 cell growth in a cell viability assay.

ONS-76 = type: functional, cell-based, Homo sapiens; details: Homo sapiens, ONS-76;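 note: growth inhibition of human ONS-76 cells, read out with a cell viability assay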
Description: SANGER: Inhibition of human ONS-76 cell growth in a cell viability assay.

U2OS = type: functional, cell-based, Homo sapiens, U-2-OS; details: Homo sapiens, U2OS;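 note: growth inhibition of human U-2-OS cells, determined with a cell viability assay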
Description: SANGER: Inhibition of human U-2-OS cell growth in a cell viability assay.

SW1573 = type: functional, cell-based, Homo sapiens; details: Homo sapiens, SW1573;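 note: growth inhibition of SW1573 cells, read out with a cell viability assay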
Description: SANGER: Inhibition of human SW1573 cell growth in a cell viability assay.

MFM-223 = type: functional, cell-based, Homo sapiens; details: Homo sapiens, MFM-223
Description: SANGER: Inhibition of human MFM-223 cell growth in a cell viability assay.

Calu-6 = type: functional, cell-based, Homo sapiens; details: Homo sapiens, Calu-6;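 note: growth of human Calu-6 cells, read out by a cell viability assay, IC50 marking inhibition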
Description: SANGER: Inhibition of human Calu-6 cell growth in a cell viability assay.

MC-IXC = type: functional, cell-based, Homo sapiens; details: Homo sapiens, MC-IXC;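 note: growth inhibition of MC-IXC cells, read out with a cell viability assay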
Description: SANGER: Inhibition of human MC-IXC cell growth in a cell viability assay.

NCI-H720 = type: functional, cell-based; details: Homo sapiens;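 note: growth inhibition of human NCI-H720 cells determined by a cell viability assay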
Description: SANGER: Inhibition of human NCI-H720 cell growth in a cell viability assay.

GP5d = type: functional, cell-based, Homo sapiens; details: Homo sapiens, GP5d;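 note: growth inhibition of human GP5d cells, read out with a cell viability assay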
Description: SANGER: Inhibition of human GP5d cell growth in a cell viability assay.

CP66-MEL = type: functional, cell-based, Homo sapiens; details: Homo sapiens, CP66-MEL;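 note: growth inhibition of CP66-MEL cells determined in a cell viability assay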
Description: SANGER: Inhibition of human CP66-MEL cell growth in a cell viability assay.

COLO-320-HSR = type: functional, cell-based; details: Homo sapiens;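 note: growth inhibition of COLO-320-HSR cells, determined with a cell viability assay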
Description: SANGER: Inhibition of human COLO-320-HSR cell growth in a cell viability assay.

U-118-MG = type: functional, cell-based, Homo sapiens; details: Homo sapiens, U-118-MG
Description: SANGER: Inhibition of human U-118-MG cell growth in a cell viability assay.

Ca9-22 = type: functional, cell-based, Homo sapiens; details: Homo sapiens, Ca9-22;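 note: growth inhibition of Ca9-22 cells, read out with a cell viability assay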
Description: SANGER: Inhibition of human Ca9-22 cell growth in a cell viability assay.

LCLC-97TM1 = type: functional, cell-based, Homo sapiens; details: Homo sapiens, LCLC-97TM1;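 note: cell viability assay measuring growth inhibition of human LCLC-97TM1 cells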
Description: SANGER: Inhibition of human LCLC-97TM1 cell growth in a cell viability assay.

OS-RC-2 = type: functional, cell-based, Homo sapiens; details: Homo sapiens, OS-RC-2;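 note: growth inhibition of human OS-RC-2 cells, measured by a cell viability assay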
Description: SANGER: Inhibition of human OS-RC-2 cell growth in a cell viability assay.

EFO-21 = type: functional, cell-based, Homo sapiens; details: Homo sapiens, EFO-21;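 note: growth inhibition of EFO-21 cells measured with a viability assay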
Description: SANGER: Inhibition of human EFO-21 cell growth in a cell viability assay.

RPMI-2650 = type: functional, cell-based, Homo sapiens; details: Homo sapiens, RPMI-2650
Description: SANGER: Inhibition of human RPMI-2650 cell growth in a cell viability assay.

GT3TKB = type: functional, cell-based, Homo sapiens; details: Homo sapiens, GT3TKB;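 note: growth inhibition of the cell line, read out with a cell viability assay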
Description: SANGER: Inhibition of human GT3TKB cell growth in a cell viability assay.

SW1783 = type: functional, cell-based; details: Homo sapiens;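 note: cell growth inhibition measured with a viability assay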
Description: SANGER: Inhibition of human SW1783 cell growth in a cell viability assay.

A-375 = type: functional, cell-based, Homo sapiens; details: Homo sapiens, A-375;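 note: growth inhibition of A375 cells, read out with a cell viability assay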
Description: SANGER: Inhibition of human A375 cell growth in a cell viability assay.

HuP-T4 = type: functional, cell-based, Homo sapiens; details: Homo sapiens, HuP-T4;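 note: cell viability assay measuring how much HuP-T4 cell growth is inhibited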
Description: SANGER: Inhibition of human HuP-T4 cell growth in a cell viability assay.

HT-29 = type: functional, cell-based, Homo sapiens; details: Homo sapiens, HT-29;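 note: growth inhibition of human HT-29 cells, read out by a cell viability assay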
Description: SANGER: Inhibition of human HT-29 cell growth in a cell viability assay.

A253 cell line = type: functional, cell-based, Homo sapiens; details: Homo sapiens, A253;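 note: growth inhibition of A253 cells, read out with a cell viability assay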
Description: SANGER: Inhibition of human A253 cell growth in a cell viability assay.

CAMA-1 = type: functional, cell-based, Homo sapiens; details: Homo sapiens, CAMA-1;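 note: growth inhibition of CAMA-1 cells, read out with a cell viability assay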
Description: SANGER: Inhibition of human CAMA-1 cell growth in a cell viability assay.

KYSE-520 cell line = type: functional, cell-based, Homo sapiens; details: Homo sapiens, KYSE-520;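 note: growth inhibition of human KYSE-520 cells, read out with a viability assay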
Description: SANGER: Inhibition of human KYSE-520 cell growth in a cell viability assay.

HCE-4 = type: functional, cell-based, Homo sapiens; details: Homo sapiens, HCE-4;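 note: cell viability assay measuring inhibition of growth in the human HCE-4 cell line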
Description: SANGER: Inhibition of human HCE-4 cell growth in a cell viability assay.

SK-N-AS = type: functional, cell-based, Homo sapiens; details: Homo sapiens, SK-N-AS;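 note: growth inhibition of human SK-N-AS cells, measured with a cell viability assay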
Description: SANGER: Inhibition of human SK-N-AS cell growth in a cell viability assay.

NH-12 = type: functional, cell-based, Homo sapiens; details: Homo sapiens, NH-12;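 note: growth inhibition of NH-12 cells, read out with a cell viability assay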
Description: SANGER: Inhibition of human NH-12 cell growth in a cell viability assay.

MDA-MB-361 = type: functional, cell-based, Homo sapiens; details: Homo sapiens, MDA-MB-361
KOSC-2 = type: functional, cell-based, Homo sapiens; details: Homo sapiens, KOSC-2;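 note: growth inhibition of KOSC-2 cells, read out by a cell viability assay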
Description: SANGER: Inhibition of human KOSC-2 cell growth in a cell viability assay.

A-431 = type: functional, cell-based, Homo sapiens; details: Homo sapiens, A-431;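 note: growth inhibition of A-431 cells, determined with a cell viability read-out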
Description: SANGER: Inhibition of human A431 cell growth in a cell viability assay.

D-263MG = type: functional, cell-based, Homo sapiens; details: Homo sapiens, D-263MG
Description: SANGER: Inhibition of human D-263MG cell growth in a cell viability assay.

JVM-2 = type: functional, cell-based; details: Homo sapiens;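 note: growth inhibition of JVM-2 cells determined by a cell viability assay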
Description: SANGER: Inhibition of human JVM-2 cell growth in a cell viability assay.

LC-2-ad = type: functional, cell-based, Homo sapiens; details: Homo sapiens, LC-2-ad;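 note: growth inhibition of human LC-2-ad cells, read out with a cell viability assay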
Description: SANGER: Inhibition of human LC-2-ad cell growth in a cell viability assay.

Measured: pIC50

CCOc1nc(NC(=O)Cc2cc(OC)ccc2OC)cc(N)c1C#N
< 5.00: NMC-G1 | HT-3 | KM-H2 | SK-N-DZ | NCI-H446 | TE-1 | MDA-MB-453 | ME-180 | EFM-19 | ES7 | SW948 | GAMG | HSC-2 | A388 | MIA PaCa-2 | NCI-H1650 | SK-UT-1 | ONS-76 | U2OS | SW1573 | MFM-223 | Calu-6 | MC-IXC | NCI-H720 | GP5d | CP66-MEL | COLO-320-HSR | U-118-MG | Ca9-22 | LCLC-97TM1 | OS-RC-2 | EFO-21 | RPMI-2650 | GT3TKB | SW1783 | A-375 | HuP-T4 | HT-29 | A253 cell line | CAMA-1 | KYSE-520 cell line | HCE-4 | SK-N-AS | NH-12 | MDA-MB-361 | KOSC-2 | A-431 | D-263MG | JVM-2 | LC-2-ad

CC(=O)O[C@@H]1[C@@H](OC(C)=O)[C@@H](O)[C@H](Oc2c(-c3ccc(O)cc3)oc3cc(O)cc(O)c3c2=O)O[C@H]1C
< 5.00: NMC-G1 | HT-3 | KM-H2 | SK-N-DZ | NCI-H446 | TE-1 | MDA-MB-453 | ME-180 | EFM-19 | ES7 | SW948 | GAMG | HSC-2 | A388 | MIA PaCa-2 | NCI-H1650 | SK-UT-1 | ONS-76 | U2OS | SW1573 | MFM-223 | Calu-6 | MC-IXC | NCI-H720 | GP5d | CP66-MEL | COLO-320-HSR | U-118-MG | Ca9-22 | LCLC-97TM1 | OS-RC-2 | EFO-21 | RPMI-2650 | GT3TKB | SW1783 | A-375 | HuP-T4 | HT-29 | A253 cell line | CAMA-1 | KYSE-520 cell line | HCE-4 | SK-N-AS | NH-12 | MDA-MB-361 | KOSC-2 | A-431 | D-263MG | JVM-2 | LC-2-ad

COc1cc([C@@H]2c3cc4c(cc3[C@@H](O[C@@H]3O[C@@H]5CO[C@@H](C)O[C@H]5[C@H](O)[C@H]3O)[C@H]3COC(=O)[C@H]23)OCO4)cc(OC)c1O [ETOPOSIDE]
5.48: NMC-G1 | A388
7.37: SK-UT-1
5.70: HT-29
4.93: EFO-21
5.57: MIA PaCa-2
5.51: SW1783
5.58: GAMG
5.01: COLO-320-HSR
5.20: CP66-MEL
5.39: Calu-6
6.15: HSC-2
6.17: NH-12
6.20: A-375
5.76: NCI-H1650
6.06: EFM-19
5.95: HT-3
5.23: GP5d
6.10: HCE-4 | A-431
6.94: MC-IXC
6.12: ES7 | ONS-76 | LCLC-97TM1
7.73: A253 cell line
5.69: LC-2-ad
5.65: SW1573
5.78: KM-H2
5.84: HuP-T4
4.95: OS-RC-2
5.66: Ca9-22
4.89: CAMA-1
6.08: ME-180
6.24: RPMI-2650
< 4.80: SK-N-DZ | NCI-H446 | TE-1 | MDA-MB-453 | SW948 | U2OS | MFM-223 | NCI-H720 | U-118-MG | KYSE-520 cell line | SK-N-AS | MDA-MB-361 | KOSC-2 | D-263MG | JVM-2
6.39: GT3TKB

Cc1cnc(-c2cnc(NCCNc3ccc(C#N)cn3)nc2-c2ccc(Cl)cc2Cl)[nH]1 [LADUVIGLUSIB]
5.75: MIA PaCa-2
< 5.59: NMC-G1 | HT-3 | KM-H2 | SK-N-DZ | NCI-H446 | TE-1 | MDA-MB-453 | ME-180 | EFM-19 | ES7 | SW948 | GAMG | HSC-2 | A388 | NCI-H1650 | SK-UT-1 | ONS-76 | U2OS | SW1573 | MFM-223 | Calu-6 | MC-IXC | NCI-H720 | GP5d | CP66-MEL | COLO-320-HSR | U-118-MG | Ca9-22 | LCLC-97TM1 | OS-RC-2 | EFO-21 | RPMI-2650 | GT3TKB | SW1783 | A-375 | HuP-T4 | HT-29 | A253 cell line | CAMA-1 | KYSE-520 cell line | HCE-4 | SK-N-AS | NH-12 | MDA-MB-361 | KOSC-2 | A-431 | D-263MG | JVM-2 | LC-2-ad
